{"source": "patent US8383852B2", "about": "“Compounds having a cyclic moiety and compositions for delivering active agents” (Emisphere Technologies, Inc., priority 2007, dated 2013)", "system": "male, Sprague-Dawley rats", "experiment": "Oral delivery of insulin in rats: change in whole blood glucose after insulin plus delivery agent", "assay_type": "in vivo, rat", "conditions": "oral gavage", "experimental": "Human recombinant insulin (ICN Biomedicals, Aurora, Ohio) was dissolved in deionized water (ph ˜6.5) to obtain stock insulin solutions having a concentration of 15 mg/ml. 3-[4-(cyclopropylmethoxy)phenyl]propanoic acid (Emisphere Technologies, Tarrytown, N.Y.) was dissolved in deionized water to obtain a 200 mg/ml delivery agent solution. The free acid form of delivery agent as converted to the sodium salt by adding one equivalent of sodium hydroxide. Solutions were vortexted, sonicated, and heated. If necessary, additional sodium hydroxide was added in μl quantities to achieve uniform solubility in the delivery agent solutions. Solutions were adjusted to a pH of 3.5-8.5 by the addition of either hydrochloric acid or sodium hydroxide, as appropriate. The insulin stock solution was then added to the delivery agent solutions to obtain an administration solution ultimately having an insulin concentration of 0.5 mg/ml. After solubilization and drug addition, administration solutions were brought to a final volume by the addition of deionized water.\nInsulin was administered to male, Sprague-Dawley rats either alone or in combination with delivery agent by oral gavage (PO). Typically, rats were fasted for 18-24 hours prior to dosing. A Rusch 8 French catheter was cut to 11 cm in length and adapted to fit a 1 ml syringe. The syringe was filled with dosing solution and the catheter was inserted into the rat mouth and fed down the esophagus (10.0 cm). The dosing solution was delivered by pressing the syringe plunger while holding the rat in an upright position. The doses of delivery agent and\n[…] The dose volume was 1 ml/kg. The weight of the rats in this invention ranges from 250 to 300 grams. The rat was weighted prior to the test and the dose volume was adjusted accordingly.\nImmediate to each blood sampling point, rats were exposed briefly (˜10 seconds) to carbon dioxide until prostrate. A 77-mm capillary tube was inserted into the retroorbital sinus. Typically, blood samples were collected prior to dosing (time=0) and at 15, 30, 45, and 60 minutes after dosing.\nTo determine the pharmacodynamic response, a hand-held glucometer (OneTouch Ultra, LifeScan—Johnson & Johnson, New Brunswick, N.J.) was used to measure whole blood glucose after administration of insulin or insulin and delivery agent. After discarding the first drop of blood, a small sample (˜5-10 μls) was touched to the glucometer test strip (OneTouch Ultra, LifeScan) and a blood glucose reading was generated by the meter. Typically, samples were collected prior to dosing (time 0) and at 15, 30, 45, and 60 minutes after dosing.", "key": {"[1]": {"conditions": "15 min., insulin/delivery agent = 0.5 mg/200 mg per kg"}, "[2]": {"conditions": "30 min., insulin/delivery agent = 0.5 mg/200 mg per kg"}, "[3]": {"conditions": "45 min., insulin/delivery agent = 0.5 mg/200 mg per kg"}, "[4]": {"conditions": "60 min., insulin/delivery agent = 0.5 mg/200 mg per kg"}, "[5]": {"conditions": "time 0, insulin/delivery agent = 0.5 mg/200 mg per kg"}}, "data": [{"compound": "O=C(O)CCc1ccc(OCC2CC2)cc1", "note": "[Compound 1, 3-[4-(cyclopropylmethoxy)phenyl]propanoic acid]", "values": [{"measurement": "Percent change in whole blood glucose from baseline (negative = reduction)", "setting": "[1]", "value": "−17.26", "unit": "%"}, {"measurement": "Percent change in whole blood glucose from baseline (negative = reduction)", "setting": "[2]", "value": "−38.35", "unit": "%"}, {"measurement": "Percent change in whole blood glucose from baseline (negative = reduction)", "setting": "[3]", "value": "−43.75", "unit": "%"}, {"measurement": "Percent change in whole blood glucose from baseline (negative = reduction)", "setting": "[4]", "value": "−42.48", "unit": "%"}, {"measurement": "Percent change in whole blood glucose from baseline (negative = reduction)", "setting": "[5]", "value": "−4.64", "unit": "%"}]}, {"compound": "O=C(O)c1ccc(OCC2CCC2)cc1", "note": "[Compound 2, 4-(cyclobutylmethoxy)benzoic acid]", "values": [{"measurement": "Percent change in whole blood glucose from baseline (negative = reduction)", "setting": "[1]", "value": "−20.04", "unit": "%"}, {"measurement": "Percent change in whole blood glucose from baseline (negative = reduction)", "setting": "[2]", "value": "−32.2", "unit": "%"}, {"measurement": "Percent change in whole blood glucose from baseline (negative = reduction)", "setting": "[3]", "value": "−32.51", "unit": "%"}, {"measurement": "Percent change in whole blood glucose from baseline (negative = reduction)", "setting": "[4]", "value": "−19.95", "unit": "%"}, {"measurement": "Percent change in whole blood glucose from baseline (negative = reduction)", "setting": "[5]", "value": 7.51, "unit": "%"}]}, {"compound": "COc1cc(CC(=O)O)ccc1OCC1CCC1", "note": "[Compound 3, [4-(cyclobutylmethoxy)-3-methoxyphenyl]acetic acid]", "values": [{"measurement": "Percent change in whole blood glucose from baseline (negative = reduction)", "setting": "[1]", "value": "−15.04", "unit": "%"}, {"measurement": "Percent change in whole blood glucose from baseline (negative = reduction)", "setting": "[2]", "value": "−22.90", "unit": "%"}, {"measurement": "Percent change in whole blood glucose from baseline (negative = reduction)", "setting": "[3]", "value": "−21.04", "unit": "%"}, {"measurement": "Percent change in whole blood glucose from baseline (negative = reduction)", "setting": "[4]", "value": "−19.74", "unit": "%"}, {"measurement": "Percent change in whole blood glucose from baseline (negative = reduction)", "setting": "[5]", "value": 6.88, "unit": "%"}]}, {"compound": "O=C(O)c1ccc(OCC2CC2)cc1", "note": "[Compound 4, 4-(cyclopropylmethoxy)benzoic acid]", "values": [{"measurement": "Percent change in whole blood glucose from baseline (negative = reduction)", "setting": "[1]", "value": "−11.80", "unit": "%"}, {"measurement": "Percent change in whole blood glucose from baseline (negative = reduction)", "setting": "[2]", "value": "−32.15", "unit": "%"}, {"measurement": "Percent change in whole blood glucose from baseline (negative = reduction)", "setting": "[3]", "value": "−21.14", "unit": "%"}, {"measurement": "Percent change in whole blood glucose from baseline (negative = reduction)", "setting": "[4]", "value": "−16.78", "unit": "%"}, {"measurement": "Percent change in whole blood glucose from baseline (negative = reduction)", "setting": "[5]", "value": 1.72, "unit": "%"}]}, {"compound": "O=C(O)Cc1ccc(OCC2CC2)cc1", "note": "[Compound 5, [4-(cyclopropylmethoxy)phenyl]acetic acid]", "values": [{"measurement": "Percent change in whole blood glucose from baseline (negative = reduction)", "setting": "[1]", "value": "−17.53", "unit": "%"}, {"measurement": "Percent change in whole blood glucose from baseline (negative = reduction)", "setting": "[2]", "value": "−26.944", "unit": "%"}, {"measurement": "Percent change in whole blood glucose from baseline (negative = reduction)", "setting": "[3]", "value": "−22.92", "unit": "%"}, {"measurement": "Percent change in whole blood glucose from baseline (negative = reduction)", "setting": "[4]", "value": "−18.62", "unit": "%"}, {"measurement": "Percent change in whole blood glucose from baseline (negative = reduction)", "setting": "[5]", "value": "−1.91", "unit": "%"}]}, {"compound": "O=C(O)c1ccccc1OCC1CCC1", "note": "[Compound 6, 2-(cyclobutylmethoxy)benzoic acid]", "values": [{"measurement": "Percent change in whole blood glucose from baseline (negative = reduction)", "setting": "[1]", "value": "−9.25", "unit": "%"}, {"measurement": "Percent change in whole blood glucose from baseline (negative = reduction)", "setting": "[2]", "value": "−20.51", "unit": "%"}, {"measurement": "Percent change in whole blood glucose from baseline (negative = reduction)", "setting": "[3]", "value": "−2.61", "unit": "%"}, {"measurement": "Percent change in whole blood glucose from baseline (negative = reduction)", "setting": "[4]", "value": "−2.75", "unit": "%"}, {"measurement": "Percent change in whole blood glucose from baseline (negative = reduction)", "setting": "[5]", "value": 6.37, "unit": "%"}]}, {"compound": "COc1cc(CC(=O)O)ccc1OC1CCCC1", "note": "[Compound 7, [4-(cyclopentyloxy)-3-methoxyphenyl]acetic acid]", "values": [{"measurement": "Percent change in whole blood glucose from baseline (negative = reduction)", "setting": "[1]", "value": "−7.15", "unit": "%"}, {"measurement": "Percent change in whole blood glucose from baseline (negative = reduction)", "setting": "[2]", "value": "−17.37", "unit": "%"}, {"measurement": "Percent change in whole blood glucose from baseline (negative = reduction)", "setting": "[3]", "value": "−12.75", "unit": "%"}, {"measurement": "Percent change in whole blood glucose from baseline (negative = reduction)", "setting": "[4]", "value": "−12.77", "unit": "%"}, {"measurement": "Percent change in whole blood glucose from baseline (negative = reduction)", "setting": "[5]", "value": 11.87, "unit": "%"}]}, {"compound": "COc1cc(CC(=O)O)ccc1OCC1CC1", "note": "[Compound 8, [4-(cyclopropylmethoxy)-3-methoxyphenyl]acetic acid]", "values": [{"measurement": "Percent change in whole blood glucose from baseline (negative = reduction)", "setting": "[1]", "value": "−1.61", "unit": "%"}, {"measurement": "Percent change in whole blood glucose from baseline (negative = reduction)", "setting": "[2]", "value": "−14.21", "unit": "%"}, {"measurement": "Percent change in whole blood glucose from baseline (negative = reduction)", "setting": "[3]", "value": "−16.12", "unit": "%"}, {"measurement": "Percent change in whole blood glucose from baseline (negative = reduction)", "setting": "[4]", "value": "−18.19", "unit": "%"}, {"measurement": "Percent change in whole blood glucose from baseline (negative = reduction)", "setting": "[5]", "value": 18.75, "unit": "%"}]}, {"compound": "O=C(O)c1ccccc1OCC1CC1", "note": "[Compound 9, 2-(cyclopropylmethoxy)benzoic acid]", "values": [{"measurement": "Percent change in whole blood glucose from baseline (negative = reduction)", "setting": "[1]", "value": "−1.29", "unit": "%"}, {"measurement": "Percent change in whole blood glucose from baseline (negative = reduction)", "setting": "[2]", "value": "−6.99", "unit": "%"}, {"measurement": "Percent change in whole blood glucose from baseline (negative = reduction)", "setting": "[3]", "value": "−11.40", "unit": "%"}, {"measurement": "Percent change in whole blood glucose from baseline (negative = reduction)", "setting": "[4]", "value": "−11.75", "unit": "%"}, {"measurement": "Percent change in whole blood glucose from baseline (negative = reduction)", "setting": "[5]", "value": "−1.59", "unit": "%"}]}, {"compound": "O=C(O)c1ccccc1OC1CCCC1", "note": "[Compound 10, 2-(cyclopentyloxy)benzoic acid]", "values": [{"measurement": "Percent change in whole blood glucose from baseline (negative = reduction)", "setting": "[1]", "value": "−6.94", "unit": "%"}, {"measurement": "Percent change in whole blood glucose from baseline (negative = reduction)", "setting": "[2]", "value": "−25.22", "unit": "%"}, {"measurement": "Percent change in whole blood glucose from baseline (negative = reduction)", "setting": "[3]", "value": "−29.27", "unit": "%"}, {"measurement": "Percent change in whole blood glucose from baseline (negative = reduction)", "setting": "[4]", "value": "−29.91", "unit": "%"}, {"measurement": "Percent change in whole blood glucose from baseline (negative = reduction)", "setting": "[5]", "value": "+16.39%"}]}, {"compound": "O=C(O)c1ccccc1OCC1CCCCC1", "note": "[Compound 11, 2-(cyclohexylmethoxy)benzoic acid]", "values": [{"measurement": "Percent change in whole blood glucose from baseline (negative = reduction)", "setting": "[1]", "value": "−4.82", "unit": "%"}, {"measurement": "Percent change in whole blood glucose from baseline (negative = reduction)", "setting": "[2]", "value": "−6.23", "unit": "%"}, {"measurement": "Percent change in whole blood glucose from baseline (negative = reduction)", "setting": "[3]", "value": "−19.71", "unit": "%"}, {"measurement": "Percent change in whole blood glucose from baseline (negative = reduction)", "setting": "[4]", "value": "−19.54", "unit": "%"}, {"measurement": "Percent change in whole blood glucose from baseline (negative = reduction)", "setting": "[5]", "value": "−1.27", "unit": "%"}]}]}
